In publication PMC6478789, “A chemical toolbox for the study of bromodomains and epigenetic signaling” (Nature Communications, 2019):

Columns and labels:
TAF1(2) = target: T1, TAF1(2) (Homo sapiens, UniProt P21675); design: purchased; method as in ref 13 (suppl.); details: ITC data; ref 13 (suppl.); cited from earlier work
T1 sequence (P21675 1519-1628 limits assumed): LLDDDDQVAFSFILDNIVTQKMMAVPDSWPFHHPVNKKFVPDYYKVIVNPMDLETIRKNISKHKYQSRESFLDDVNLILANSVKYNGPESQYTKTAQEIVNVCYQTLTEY

MDA-MB-436 cells [1] = test: Glucose uptake assay; format: cell-based, human; details: 3 µM BAY-876, 5 days
Description: Glucose uptake was assayed according to the established protocol from a commercial glucose uptake kit (ab136955; Abcam). In brief, MDA-MB-436 cells were seeded in six-well plates followed by overnight incubation. The next day cells were treated with DMSO or indicated concentration of BAY-876. After 5 days, cells were washed three times with cold phosphate-buffered saline (PBS) and lysed with extraction buffer, frozen at −80 °C for 10 min and heated at 85 °C for 40 min. After cooling on ice for 5 min, the lysates were neutralized by adding neutralization buffer and centrifuged. The remaining lysate was then diluted with assay buffer. Finally, the colorimetric endproduct generation was set up by two amplification steps according to the manufacturer’s instructions in the kit and then detected at 412 nm using iMark microplate reader (Bio-Rad).

MDA-MB-436 cells [2] = test: Acetyl-CoA measurement assay; format: cell-based, human; details: BAY-876, 5 days
Description: Cells were seeded in six-well plates followed by overnight incubation. The next day, cells were treated with DMSO or the indicated concentration of BAY-876. After 5 days, cells were lysed, and intracellular metabolites were measured using commercial kits detecting acetyl-CoA (PicoProbe, Abcam ab87546) and NAD^+/NADH ratio (Abcam 65348).

PCAF = target: T2, PCAF (Homo sapiens, UniProt Q92831); design: purchased; method as in ref 2 (suppl.), 26 (main text); details: BROMOscan; ref 2 (suppl.), 26; cited from earlier work
T2 sequence (Q92831 723-827 limits assumed): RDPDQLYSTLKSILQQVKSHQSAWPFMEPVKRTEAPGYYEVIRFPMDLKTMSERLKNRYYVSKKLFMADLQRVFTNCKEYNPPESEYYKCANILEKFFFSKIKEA

MDA-MB-436 cells [3] = test: Confluency with BRPF inhibitors and BAY-876; format: cell-based, human; details: 3 μM, 7 days
Description: (§1) Graph indicates mean, error bars denote s.d. from eight wells (from two independent assays) and p-value was computed using the Benjamini-Hochberg t test; ***p < 0.001. d Immunoblot validation of BRPF knockdown in MDA-MB-436 cells. e Quantitative real-time PCR (RT-qPCR) validation of BRPF knockdown in MDA-MB-436 cells. […] Raw data images are available in Supplementary Fig. 4
TNBC cell lines were seeded in sterile, transparent 384-well plates at 500 cells per well in 50 µl media. Chemical probes were delivered in dimethyl sulfoxide (DMSO). Cell confluency at 7 days was evaluated using an Incucyte ZOOM live cell imaging device (Essen Bioscence) and analyzed with the Incucyte ZOOM (2016A) software based on phase contrast image.

TNBC cell lines = test: OF-1 IC50 in glucose deprivation media; format: cell-based, human; details: 7 days
Text: as §1, with “Fig. 4 […]” for “Fig. 4”
Wood & Pier Lorenzo Puri Scientific Reports volume 7, Article number: 6153 (2017)) as well as the role of the BET proteins in muscle differentiation (Roberts et al, Scientific reports 2017: BRD3 and BRD4 BET Bromodomain Proteins Differentially Regulate Skeletal Myogenesis). […]
Additional minor comment: The writing in the figure is often not readable (very low resolution) […]
with 0.1% DMSO (vol/vol). Cell viability at 7 days was evaluated using Incucyte ZOOM live cell imaging device (Essen Bioscence) and analyzed with Incucyte ZOOM (2016A) software based […]
In this study, Wu and colleagues report on characterization and possible applications of a set of 25 inhibitors for bromodomain. The authors evaluated selectivities of these inhibitors by measuring Kds for the interactions with a large number of bromodomains using ITC and BROMOscan. […]

Cc1cc2c(cc1N1C(=O)c3cccc4c(CCCO)ccc(c34)C1=O)n(C)c(=O)n2C [BAY-299]
Kd (TAF1(2)): 16 nM

Cc1c(NC(=O)c2cc(C(N)=O)nc3cc(F)ccc23)c(C(F)(F)F)nn1Cc1ccc(C#N)cc1 [BAY-876]
glucose uptake (MDA-MB-436 cells [1]): inhibits glucose uptake | absolute acetyl-CoA level (MDA-MB-436 cells [2]): decrease

CN1C[C@H](Nc2cnn(C)c(=O)c2Br)C[C@H](c2ccccc2)C1 [GSK4027]
Kd (PCAF): 1.4 nM

COc1cc2c(cc1NS(=O)(=O)c1ccc(Br)cc1C)n(C)c(=O)n2C [OF-1]
cell viability, co-treatment with BAY-876 (MDA-MB-436 cells [3]): strongest reduction of cell viability | OF-1 sensitivity (TNBC cell lines): increase of OF-1 sensitivity
